This is an account of results in patent US4843089A, “Antimycotic agent” (Bayer Aktiengesellschaft, priority 1984, dated 1989).

For experiment [1], the system named is Candida. As to the kind of experiment: Antimycotic in vivo activity (oral) on candidosis of mice. Conditions: in words, 25-100 mg/kg, versus compounds (A) and (B). The arrangement: species or system mice (SPF-CF1). The protocol: Mice of the SPF-CF1 type were infected intravenously with 1-2×10^6 logarithmically growing Candida cells suspended in physiological saline solution. The animals were treated orally with in each case 25-100 mg of the products/kg of body weight one hour before and seven hours after infection. Untreated animals died 3 to 6 days after infection. The survival rate on the 6th day after infection was about 5% in the untreated control animals.

In experiment [2] the test system is dermatophytes, molds and yeasts. Briefly: Antimycotic in vitro activity, series dilution test (overall comparison with compound (B)). The class given is cell-based. Conditions: in words; versus compound (B) known from the prior art. The protocol: The in vitro tests were carried out in a series dilution test using germ inocular of on average 5×10^3 to 10^4 germs/ml of substrate. The nutrient medium used was (a) for dermatophytes and molds. Sabourand's milieu d'epreuve (b) for yeasts: meat extract/glucose broth. The incubation temperature was 28° C. to 37° C. and the incubation period was 24 to 96 hours for yeasts and 96 hours for dermatophytes and molds.

Experiment [3] relates to Trichophyton von mentagrophytes. Briefly: Antimicrobial in vivo activity (local), experimental trichophytosis in guinea pigs. Conditions: 0.1% strength solution, 1x daily.

As to `CON=CC(C)(C)C(O)(COc1ccc(Cl)cc1)Cn1cncn1` (stereo not shown) [Example 4], the “action against candidosis of mice compared with compounds (A) and (B)” value (“action … compared with compounds (A) and (B)” for short) in experiment [1] is “better action than compounds (A) and (B)”. The “antimycotic action in vitro compared with compound (B)” value in experiment [2] is on record as “better antimycotic action than compound (B)”.

Consider `CC(C)(C=O)C(O)(COc1ccc(-c2ccccc2)cc1)Cn1cncn1` (stereo not shown) [Example 5], for which, in experiment [1], the “action … compared with compounds (A) and (B)” value is “better action than compounds (A) and (B)”.

For `CC(C)(C=O)C(O)(CCc1ccc(Cl)cc1)Cn1cncn1` (stereo not shown) [Example 7], the “antimycotic action in vitro compared with compound (B)” value in experiment [2] was “better antimycotic action than compound (B)”.

As to `CC(C)(C=O)C(O)(CCc1ccc(Cl)cc1Cl)Cn1cncn1` (stereo not shown) [Example 8], the “action … compared with compounds (A) and (B)” value in experiment [1] was “better action than compounds (A) and (B)”.

`CON=CC(C)(C)C(O)(C#Cc1ccc(Cl)cc1)Cn1cncn1` (stereo not shown) [Example 10]: the “action … compared with compounds (A) and (B)” value in experiment [1] is “better action than compounds (A) and (B)”. In experiment [2], the “antimycotic action in vitro compared with compound (B)” value was “better antimycotic action than compound (B)”.

Regarding `CC(C)(C=O)C(O)(C#Cc1ccc(-c2ccccc2)cc1)Cn1cncn1` (stereo not shown) [Example 11], in experiment [2], the “antimycotic action in vitro compared with compound (B)” value is listed as “better antimycotic action than compound (B)”.

As for `CON=CC(C)(C)C(O)(C#Cc1ccc(-c2ccccc2)cc1)Cn1cncn1` (stereo not shown) [Example 12], the “action … compared with compounds (A) and (B)” value in experiment [1] was “better action than compounds (A) and (B)”. In addition, in experiment [2], the “antimycotic action in vitro compared with compound (B)” value is “better antimycotic action than compound (B)”.

In the case of `CON=CC(C)(C)C(O)(C#Cc1ccc(Cl)cc1Cl)Cn1cncn1` (stereo not shown) [Example 13], the “action … compared with compounds (A) and (B)” value in experiment [1] is “better action than compounds (A) and (B)”. Besides, the “antimycotic action in vitro compared with compound (B)” value in experiment [2] is “better antimycotic action than compound (B)”.

Regarding `CC(C)(C=O)C(O)(CCc1ccc(Cl)cc1)Cn1ccnc1` (stereo not shown) [Example 16], the “action … compared with compounds (A) and (B)” value in experiment [1] is “better action than compounds (A) and (B)”.

`CON=CC(C)(C)C(O)(CSc1ccc(C(F)(F)F)c(Cl)c1)Cn1cncn1` (stereo not shown) [Example 17]: the “antimycotic action in vitro compared with compound (B)” value in experiment [2] was “better antimycotic action than compound (B)”.

In the case of `CON=CC(C)(C)C(O)(CSc1ccc(Br)cc1)Cn1cncn1` (stereo not shown) [Example 18], in experiment [1], the “action … compared with compounds (A) and (B)” value was “better action than compounds (A) and (B)”. The “action (local) on experimental trichophytosis, in words” value (shortened to “action (local)”) in experiment [3] is given as “good action”. Also, the “antimycotic action in vitro compared with compound (B)” value in experiment [2] is on record as “better antimycotic action than compound (B)”.

Regarding `CC(C)(C=O)C(O)(CSc1ccc(Br)cc1)Cn1cncn1` (stereo not shown) [Example 19], the “antimycotic action in vitro compared with compound (B)” value in experiment [2] is “better antimycotic action than compound (B)”.

Consider `CON=CC(C)(C)C(O)(CSc1ccc(Cl)cc1)Cn1ccnc1` (stereo not shown) [Example 20], for which, in experiment [1], the “action … compared with compounds (A) and (B)” value is “better action than compounds (A) and (B)”. Further, the “action (local)” value in experiment [3] was “good action”. The “antimycotic action in vitro compared with compound (B)” value in experiment [2] was “better antimycotic action than compound (B)”.

In the case of `CON=CC(C)(C)C(O)(CSc1ccc(Br)cc1)Cn1ccnc1` (stereo not shown) [Example 21], the “antimycotic action in vitro compared with compound (B)” value in experiment [2] is “better antimycotic action than compound (B)”.

Turning to `CON=CC(C)(C)C(O)(CCc1ccc(Cl)cc1)Cn1cncn1` (stereo not shown) [Example 22], the “action (local)” value in experiment [3] is listed as “good action”. In experiment [2], the “antimycotic action in vitro compared with compound (B)” value was “better antimycotic action than compound (B)”.

In the case of `CCCCON=CC(C)(C)C(O)(CCc1ccc(Cl)cc1)Cn1cncn1` (stereo not shown) [Example 23], the “action … compared with compounds (A) and (B)” value in experiment [1] is “better action than compounds (A) and (B)”. Moreover, in experiment [2], the “antimycotic action in vitro compared with compound (B)” value is listed as “better antimycotic action than compound (B)”.

As for `CON=CC(C)(C)C(O)(COc1ccc(Cl)cc1Cl)Cn1cncn1` (stereo not shown) [Example 24], the “action … compared with compounds (A) and (B)” value in experiment [1] was “better action than compounds (A) and (B)”.

For the compound `CC(C)(C=NOCc1ccc(Cl)cc1)C(O)(CCc1ccc(Cl)cc1)Cn1cncn1` (stereo not shown) [Example 28], in experiment [1], the “action … compared with compounds (A) and (B)” value was “better action than compounds (A) and (B)”. For the same compound, the “antimycotic action in vitro compared with compound (B)” value in experiment [2] is given as “better antimycotic action than compound (B)”.

Take `CC(C)(C=NOCc1ccc(Cl)cc1Cl)C(O)(CCc1ccc(Cl)cc1)Cn1cncn1` (stereo not shown) [Example 29]: the “antimycotic action in vitro compared with compound (B)” value in experiment [2] is “better antimycotic action than compound (B)”.

For the compound `CC(C)(C=NOCc1ccc(Cl)cc1)C(O)(COc1ccc(Cl)c(Cl)c1)Cn1cncn1` (stereo not shown) [Example 30], the “antimycotic action in vitro compared with compound (B)” value in experiment [2] is on record as “better antimycotic action than compound (B)”.

For `CON=CC(C)(C)C(O)(CSc1ccc(Cl)cc1)Cn1cncn1` (stereo not shown) [Example 32], in experiment [1], the “action … compared with compounds (A) and (B)” value was “better action than compounds (A) and (B)”. Also, in experiment [3], the “action (local)” value is on record as “good action”. For the same compound, in experiment [2], the “antimycotic action in vitro compared with compound (B)” value was “better antimycotic action than compound (B)”.

Consider `C=CCON=CC(C)(C)C(O)(CSc1ccc(Cl)cc1)Cn1cncn1` (stereo not shown) [Example 33], for which the “antimycotic action in vitro compared with compound (B)” value in experiment [2] is “better antimycotic action than compound (B)”.

Take `CON=CC(C)(C)C(O)(Cn1cncn1)c1ccc(-c2ccccc2)cc1` (stereo not shown) [Example 35]: the “antimycotic action in vitro compared with compound (B)” value in experiment [2] is “better antimycotic action than compound (B)”.

On to `C=CCON=CC(C)(C)C(O)(Cn1cncn1)c1ccc(-c2ccccc2)cc1` (stereo not shown) [Example 36], for which the “antimycotic action in vitro compared with compound (B)” value in experiment [2] is on record as “better antimycotic action than compound (B)”.

In the case of `CON=CC(C)(C)C(O)(Cn1cncn1)c1ccc(Cl)cc1` (stereo not shown) [Example 37], the “action … compared with compounds (A) and (B)” value in experiment [1] was “better action than compounds (A) and (B)”. For the same compound, the “action (local)” value in experiment [3] was “good action”. Besides, the “antimycotic action in vitro compared with compound (B)” value in experiment [2] is reported as “better antimycotic action than compound (B)”.

For `CCCON=CC(C)(C)C(O)(Cn1cncn1)c1ccc(Cl)cc1` (stereo not shown) [Example 38], in experiment [1], the “action … compared with compounds (A) and (B)” value is “better action than compounds (A) and (B)”. Moreover, the “action (local)” value in experiment [3] was “good action”. Moreover, the “antimycotic action in vitro compared with compound (B)” value in experiment [2] is listed as “better antimycotic action than compound (B)”.

Turning to `CC(C)(C=NOCC1CCCCC1)C(O)(Cn1cncn1)c1ccc(Cl)cc1` (stereo not shown) [Example 39], the “action … compared with compounds (A) and (B)” value in experiment [1] was “better action than compounds (A) and (B)”.

For the compound `CCCCON=CC(C)(C)C(O)(Cn1cncn1)c1ccc(Cl)cc1` (stereo not shown) [Example 40], the “action … compared with compounds (A) and (B)” value in experiment [1] was “better action than compounds (A) and (B)”. Also, in experiment [3], the “action (local)” value was “good action”.

Consider `CCCC(O)(Cn1cncn1)C(C)(C)C=NOCc1ccc(Cl)cc1` (stereo not shown) [Example 41], for which, in experiment [2], the “antimycotic action in vitro compared with compound (B)” value is listed as “better antimycotic action than compound (B)”.

As for `CCCC(O)(Cn1cncn1)C(C)(C)C=NOCc1ccc(Cl)cc1Cl` (stereo not shown) [Example 42], the “antimycotic action in vitro compared with compound (B)” value in experiment [2] is “better antimycotic action than compound (B)”.

On to `CCC(O)(Cn1cncn1)C(C)(C)C=NOCc1ccc(Cl)cc1` (stereo not shown) [Example 43], for which the “antimycotic action in vitro compared with compound (B)” value in experiment [2] is listed as “better antimycotic action than compound (B)”.

`CCCCC(O)(Cn1cncn1)C(C)(C)C=NOCC1CCCCC1` (stereo not shown) [Example 45]: the “antimycotic action in vitro compared with compound (B)” value in experiment [2] is “better antimycotic action than compound (B)”.

`CCCCC(O)(Cn1cncn1)C(C)(C)C=NOCc1ccc(Cl)cc1` (stereo not shown) [Example 46]: the “antimycotic action in vitro compared with compound (B)” value in experiment [2] was “better antimycotic action than compound (B)”.

As to `CCCCC(O)(Cn1cncn1)C(C)(C)C=NOCc1ccc(Cl)cc1Cl` (stereo not shown) [Example 47], in experiment [2], the “antimycotic action in vitro compared with compound (B)” value was “better antimycotic action than compound (B)”.
